Experimental data taken from BindingDB's records for doi:10.1016/j.bmcl.2004.03.046 (Seoul National University, 2004).

Target: Tyrosinase (Agaricus bisporus)
Experiment: Inhibitory activity against mushroom tyrosinase

O=C(N[C@@H](Cc1ccccc1)C(=O)N[C@@H](Cc1c[nH]c2ccccc12)C(=O)N[C@@H](Cc1c[nH]c2ccccc12)C(=O)O)OCc1cc(=O)c(O)co1 [2-[(S)-2-[(S)-2-(5-Hydroxy-4-oxo-4H-pyran-2-ylmethoxycarbonylamino)-3-phenyl-propionylamino]-3-(1H-indol-3-yl)-propionylamino]-3-(1H-indol-3-yl)-propionic acid]
IC50: 6.17 µM

CC[C@H](C)[C@H](NC(=O)[C@H](Cc1c[nH]c2ccccc12)NC(=O)[C@H](Cc1ccccc1)NC(=O)OCc1cc(=O)c(O)co1)C(=O)O [2-[(S)-2-[(S)-2-(5-Hydroxy-4-oxo-4H-pyran-2-ylmethoxycarbonylamino)-3-phenyl-propionylamino]-3-(1H-indol-3-yl)-propionylamino]-3-(S)-methyl-pentanoic acid]
IC50: 2.18 µM

O=C(N[C@@H](Cc1ccccc1)C(=O)N[C@@H](Cc1c[nH]c2ccccc12)C(=O)N[C@@H](Cc1ccccc1)C(=O)O)OCc1cc(=O)c(O)co1 [2-[(S)-2-[(S)-2-(5-Hydroxy-4-oxo-4H-pyran-2-ylmethoxycarbonylamino)-3-phenyl-propionylamino]-3-(1H-indol-3-yl)-propionylamino]-3-phenyl-propionic acid]
IC50: 4.48 µM

O=C(O)C[C@H](NC(=O)[C@H](Cc1c[nH]c2ccccc12)NC(=O)[C@H](Cc1ccccc1)NC(=O)OCc1cc(=O)c(O)co1)C(=O)O [2-[(S)-2-[(S)-2-(5-Hydroxy-4-oxo-4H-pyran-2-ylmethoxycarbonylamino)-3-phenyl-propionylamino]-3-(1H-indol-3-yl)-propionylamino]-succinic acid]
IC50: 2.13 µM

O=C(N[C@@H](Cc1ccccc1)C(=O)N[C@@H](Cc1ccc(O)cc1)C(=O)N[C@@H](Cc1ccc(O)cc1)C(=O)O)OCc1cc(=O)c(O)co1 [(S)-2-[(S)-2-[(S)-2-(5-Hydroxy-4-oxo-4H-pyran-2-ylmethoxycarbonylamino)-1-oxo-3-phenyl-propylamino]-3-(4-hydroxy-phenyl)-propionylamino]-3-(4-hydroxy-phenyl)-propionic acid]
IC50: 0.39 µM

O=C(N[C@@H](Cc1ccccc1)C(=O)N[C@@H](Cc1ccccc1)C(=O)N[C@@H](Cc1ccc(O)cc1)C(=O)O)OCc1cc(=O)c(O)co1 [(S)-2-{(S)-2-[(S)-2-(5-Hydroxy-4-oxo-4H-pyran-2-ylmethoxycarbonylamino)-1-oxo-3-phenyl-propylamino]-3-phenyl-propionylamino}-3-(4-hydroxy-phenyl)-propionic acid]
IC50: 0.33 µM
